Measurements from ChEMBL document CHEMBL1201862, “PubChem BioAssay data set” (2004).
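Test compounds were applied to cells in 96-well plates for 48 hours at 5 doses. Here, GI50 denotes the concentration required for 50% inhibition of growth.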 Calls of active or inactive are those of the source. Rule as the data show it: active = GI50 up to about 1.1 µM and inactive = higher.

Experiments:
Experiment in all cases: DTP human tumour cell line panel, 48 h
[1] = test system: RXF 393
[2] = test system: MOLT-4
[3] = test system: 786-0
[4] = test system: NCI-H522
[5] = test system: SF-295
[6] = test system: SK-MEL-2
[7] = test system: SK-OV-3
[8] = test system: TK-10
[9] = test system: OVCAR-8
[10] = test system: BT-549
[11] = test system: MDA-MB-435
[12] = test system: HT-29
[13] = test system: LOX IMVI
[14] = test system: SNB-19
[15] = test system: OVCAR-4
[16] = test system: SW-620
[17] = test system: SK-MEL-28
[18] = test system: KM12
[19] = test system: DU-145
[20] = test system: HOP-92

Structure (SMILES)	GI50 [1]	GI50 [2]	GI50 [3]	GI50 [4]	GI50 [5]	GI50 [6]	GI50 [7]	GI50 [8]	GI50 [9]	GI50 [10]	GI50 [11]	GI50 [12]	GI50 [13]	GI50 [14]	GI50 [15]	GI50 [16]	GI50 [17]	GI50 [18]	GI50 [19]	GI50 [20]
CC1=NN(c2nc(N)nc(/C(C#N)=C\c3ccc(-c4ccc([N+](=O)[O-])cc4)o3)n2)C(C)(C)C1	> 100 µM (inactive)	> 100 µM (inactive)	> 100 µM (inactive)	> 100 µM (inactive)	> 100 µM (inactive)	> 100 µM (inactive)	> 100 µM (inactive)	> 100 µM (inactive)	> 100 µM (inactive)	> 100 µM (inactive)	> 100 µM (inactive)	> 100 µM (inactive)	> 100 µM (inactive)	> 100 µM (inactive)	> 100 µM (inactive)	> 100 µM (inactive)	> 100 µM (inactive)	> 100 µM (inactive)	> 100 µM (inactive)	> 100 µM (inactive)
CO[C@H]1O[C@@H]2CO[C@@H](c3ccccc3)O[C@H]2C[C@]12CCC/C=C\CO2	13.9 µM (inactive)	12.9 µM (inactive)	14.2 µM (inactive)	11.5 µM (inactive)	25.8 µM (inactive)	15.9 µM (inactive)	37.7 µM (inactive)	22.6 µM (inactive)	12.1 µM (inactive)	12.6 µM (inactive)	12.2 µM (inactive)	17.7 µM (inactive)	12.6 µM (inactive)	22.8 µM (inactive)	21.9 µM (inactive)	20.6 µM (inactive)	13.4 µM (inactive)	29.5 µM (inactive)	33.5 µM (inactive)	13.5 µM (inactive)
CC(NC(=O)/C(C#N)=C/c1ccc2[nH]ccc2c1)c1ccccc1 (stereo not given)	19.3 µM (inactive)	20.8 µM (inactive)	16.7 µM (inactive)	12.8 µM (inactive)	17.1 µM (inactive)	20.8 µM (inactive)	21.9 µM (inactive)	17.9 µM (inactive)	21.3 µM (inactive)	11.2 µM (inactive)	13.9 µM (inactive)	17.5 µM (inactive)	16.4 µM (inactive)	19.6 µM (inactive)	20.2 µM (inactive)	18.3 µM (inactive)	19.8 µM (inactive)	17.3 µM (inactive)	16.7 µM (inactive)	14.5 µM (inactive)
CCCCC/C=C1\CCC(CN2CCOCC2)C1=O (stereo not given)	5.66 µM (inactive)	2.43 µM (inactive)	2.58 µM (inactive)	2.43 µM (inactive)	16.8 µM (inactive)	13.7 µM (inactive)	18.5 µM (inactive)	7.59 µM (inactive)	7.26 µM (inactive)	14.7 µM (inactive)	5.25 µM (inactive)	10.9 µM (inactive)	4.84 µM (inactive)	16.8 µM (inactive)	16.2 µM (inactive)	3.2 µM (inactive)	7.91 µM (inactive)	3.49 µM (inactive)	14.6 µM (inactive)	15.7 µM (inactive)
N=C(N)NCCCS(=O)(=O)Nc1ccc(Nc2c3ccccc3nc3cc([N+](=O)[O-])ccc23)cc1	20.8 µM (inactive)	2.33 µM (inactive)	19.2 µM (inactive)	7.06 µM (inactive)	20.3 µM (inactive)	21.6 µM (inactive)	17.3 µM (inactive)	21.2 µM (inactive)	20.6 µM (inactive)	27.2 µM (inactive)	> 100 µM (inactive)	16.9 µM (inactive)	16.4 µM (inactive)	2.9 µM (inactive)	16.6 µM (inactive)	14.9 µM (inactive)	18.1 µM (inactive)	10.2 µM (inactive)	9.33 µM (inactive)	4.9 µM (inactive)
Nc1nc(F)nc2c1ncn2C1OC(CO)C(O)C1O (stereo not given)	> 81.8 µM (inactive)	1.14 µM (inactive)	38.1 µM (inactive)	32.7 µM (inactive)	> 100 µM (inactive)	> 100 µM (inactive)	23.2 µM (inactive)	> 100 µM (inactive)	4.61 µM (inactive)	57.5 µM (inactive)	35.7 µM (inactive)	> 100 µM (inactive)	48.2 µM (inactive)	19.2 µM (inactive)	> 100 µM (inactive)	69 µM (inactive)	> 77.3 µM (inactive)	> 100 µM (inactive)	15.7 µM (inactive)	8.79 µM (inactive)
COc1cc2ncnc(Nc3cccc(Br)c3)c2cc1OC	11.5 µM (inactive)	16.6 µM (inactive)	2.11 µM (inactive)	0.338 µM (active)	3.17 µM (inactive)	3.14 µM (inactive)	0.284 µM (active)	0.653 µM (active)	3.72 µM (inactive)	12.8 µM (inactive)	7.48 µM (inactive)	3.83 µM (inactive)	3.1 µM (inactive)	15.2 µM (inactive)	4.07 µM (inactive)	13.2 µM (inactive)	4.52 µM (inactive)	2.7 µM (inactive)	0.0741 µM (active)	3.97 µM (inactive)
CC(=O)Oc1c2ccsc2c(OC(C)=O)c2ccsc12	0.0172 µM (active)	0.955 µM (active)	2.62 µM (inactive)	0.483 µM (active)	1.07 µM (active)	0.138 µM (active)	2.86 µM (inactive)	1.97 µM (inactive)	0.337 µM (active)	0.384 µM (active)	0.179 µM (active)	2.12 µM (inactive)	0.184 µM (active)	1.47 µM (inactive)	0.67 µM (active)	1.08 µM (active)	0.329 µM (active)	1.67 µM (inactive)	0.412 µM (active)	0.577 µM (active)
CN(C)CCNc1ccc2nnn3c4ccc(Cl)cc4c(=O)c1c23	3.15 µM (inactive)	0.624 µM (active)	2.42 µM (inactive)	2.49 µM (inactive)	2.85 µM (inactive)	6.19 µM (inactive)	9.89 µM (inactive)	5 µM (inactive)	1.7 µM (inactive)	16 µM (inactive)	4.65 µM (inactive)	1.88 µM (inactive)	1.6 µM (inactive)	4.17 µM (inactive)	2.94 µM (inactive)	1.03 µM (active)	5.74 µM (inactive)	4.54 µM (inactive)	5.22 µM (inactive)	3.69 µM (inactive)
CCN(CC)C(=S)SC(C(=O)Nc1nnc(-c2ccc(Cl)cc2)o1)c1ccccc1 (stereo not given)	14.9 µM (inactive)	3.48 µM (inactive)	10 µM (inactive)	4.62 µM (inactive)	12.8 µM (inactive)	20.6 µM (inactive)	13 µM (inactive)	23.5 µM (inactive)	5.79 µM (inactive)	28.5 µM (inactive)	14.2 µM (inactive)	4.86 µM (inactive)	15.3 µM (inactive)	34.6 µM (inactive)	3.08 µM (inactive)	5.41 µM (inactive)	14 µM (inactive)	17.9 µM (inactive)	20.1 µM (inactive)	16.6 µM (inactive)
O=c1cc(/C=C/c2ccc(O)c(O)c2)cc(/C=C/c2ccc(O)c(O)c2)o1	6.71 µM (inactive)	1.92 µM (inactive)	14.3 µM (inactive)	1.68 µM (inactive)	9.44 µM (inactive)	11.6 µM (inactive)	11.5 µM (inactive)	17.5 µM (inactive)	18.6 µM (inactive)	13.9 µM (inactive)	12.9 µM (inactive)	11.4 µM (inactive)	15.7 µM (inactive)	8.28 µM (inactive)	14.3 µM (inactive)	13.6 µM (inactive)	16.4 µM (inactive)	8.43 µM (inactive)	9.23 µM (inactive)	15.2 µM (inactive)
COc1ccc(Nc2nc(N)c(C(=O)c3ccc(Cl)cc3)s2)cc1	< 0.01 µM (active)	< 0.01 µM (active)	< 0.01 µM (active)	< 0.01 µM (active)	< 0.01 µM (active)	< 0.01 µM (active)	< 0.01 µM (active)	3.61 µM (inactive)	< 0.0126 µM (active)	< 0.0135 µM (active)	< 0.01 µM (active)	< 0.0108 µM (active)	< 0.01 µM (active)	< 0.01 µM (active)	0.121 µM (active)	< 0.01 µM (active)	1.02 µM (active)	0.0432 µM (active)	< 0.01 µM (active)	18.2 µM (inactive)
Nc1nc(N)c(CCCCc2ccccc2)c(N)n1	> 100 µM (inactive)	> 100 µM (inactive)	> 100 µM (inactive)	> 100 µM (inactive)	> 100 µM (inactive)	> 100 µM (inactive)	> 100 µM (inactive)	> 100 µM (inactive)	> 100 µM (inactive)	> 100 µM (inactive)	> 100 µM (inactive)	> 100 µM (inactive)	> 100 µM (inactive)	> 100 µM (inactive)	> 100 µM (inactive)	> 100 µM (inactive)	> 100 µM (inactive)	> 100 µM (inactive)	> 100 µM (inactive)	> 100 µM (inactive)
O=c1[nH]nc(Cc2ccc(Cl)cc2)n1/N=C\CC/C=N\n1c(Cc2ccc(Cl)cc2)n[nH]c1=O	15.1 µM (inactive)	> 24.1 µM (inactive)	18.5 µM (inactive)	25.1 µM (inactive)	24.4 µM (inactive)	29.8 µM (inactive)	31.5 µM (inactive)	> 100 µM (inactive)	14 µM (inactive)	12.2 µM (inactive)	> 53.6 µM (inactive)	> 26.2 µM (inactive)	13.6 µM (inactive)	32.9 µM (inactive)	> 81.3 µM (inactive)	> 62.2 µM (inactive)	23.6 µM (inactive)	> 100 µM (inactive)	> 93.1 µM (inactive)	> 55.5 µM (inactive)
